Assay results taken from patent US6214859A, “Ethylamine derivatives” (Fujimoto Brothers Co., Ltd., priority 1997, dated 2001).

What was measured:
[1] = test system: dopamine release, substantia nigra; assay: Release of biogenic amines from brain tissue: dopamine, substantia nigra; type: in vivo, Wistar rats
Description: (§1) The method described in Life Sci., 56, 611-620 (1995) was used. After Wistar rats were decapitated, appropriate brain samples, which were striatun, substantia nigra, tuberculum olfactorium, locus coeruleus and raphe, were removed quickly and soaked in oxygenated (95% O2 and 5% CO2) Krebs solution at 37° C. The composition of Krebs solution was as follows in […]: NaCl 111, KCl 4.7, CaCl2 2.5, MgSO4 1.64, NaHCO3 25, KH2 PO4 1.2, glucose 11, 50 mg/l ascorbic add and 20 mg/l EDTA-2 Na. The preparations, soaked in one organ bath, were as follows: 1) four pieces of striatum (each halved), 2) four pieces of substantia nigra, 3) four pieces of tuberculum olfactorium; 4) eight pieces of locus coeruleus; 5) eight pieces of raphe. After incubation of the appropriate tissue for 20 min, the Krebs solution was replaced, the tissue soaked for 20 min in Krebs solution dissolving the compounds of this invention and the amount of biogenic amine released during this period of time was estimate. The compounds of this invention and PPAP, control compound, were dissolved in saline and were administered subcutaneously before 30 min to removing brain sample. For measuring noradrenaline and dopamine, samples were purified on 60 mg alumina containing micro columns (BDH Chemicals Ltd.) according to the method described in J. Pharmacol. Exp. Ther., 138, 360-372 (1962) For measuring serotonin, samples were purified on 15 mg Sephadex G-10 micro columns (Pharmacia). Dopamine, noradrenaline and serotonin were determined by high performance liquid chromatography (Waters 746 data module) with electrochemical detection (Waters 460 electrochemical detector). Waters Resolve 5μ Spherical C18 3.9×150 mm column was used as separating column and triethylamine-phosphate buffer (pH 5.2), containing 200 mg/l octane sulfonate sodium and 18 mg/l EDTA-2 Na with 6% acetonitrile, was used as mobile phase. The release amount of appropriate amine was noted as nmol/g tissue released for 20 min. deference of means tested by Student's t-test and significant level was set at P<.05.

[2] = test system: noradrenaline release, locus coeruleus; assay: Release of biogenic amines from brain tissue: noradrenaline, locus coeruleus; type: in vivo, Wistar rats
Description: as §1

[3] = Toxicity screening using primary cultured hepatocyte (LDH release); type: cell-based, rat; settings: rat, primary hepatocytes, 24 hr, control 0.5% saline or 0.5% DMSO, read-out: Percent control of LDH release
Description: (§2) The hepatocytes was prepared from rat liver by collagenase perfusion method and suspension containing 5×10^5 cells/ml were prepared. After cultivation for 24 hr, the suspension was exchanged to the William's Medium E (GIBCO BRL) containing 10 or 100 μM of the compounds of this invention. After cultivation for 24 hr, the activity of lactate dehydrogenase (LDH) released in the medium was measured.

[4] = test system: primary cultured hepatocyte; assay: as above; type: cell-based, rat; settings: 10 μM
Description: as §2

[5] = test system: serotonin release, raphe; assay: Release of biogenic amines from brain tissue: serotonin, raphe; type: in vivo, Wistar rats
Description: as §1

[6] = test system: rats reduced learning ability by tetrabenazine; assay: Conditioned avoidance task in the shuttle box (tetrabenazine-treated rats); type: in vivo, rat; settings: tetrabenazine 1 mg/kg s.c., significance and direction
Description: The method described in Life Sci., 58, 817-827 (1996) was used. The effects on conditioned avoidance reflex (CARs) was analyzed in the shuttle box using male and female rats (weighing 200-220 g) whose leaning abilities were reduced by treatment of tetrabenazine. The instrument was constructed, according to the device described in Psychopharmacologia 10, 1-5 (1966) by the Research Institute for Electrical Industry (Budapest, Hungary). The male and female rats (weighing 200-220 g) were trained to cross the berrier under the influence of a conditioned stimulus (CS) (light flash and buzzer sounds). […] And the performance which was not related to this condition was noted as an intersignal reaction (IR). The rats were trained with 100 trials per day for 5 days. One trial consisted of 15 sec intertrial interval. The saline solution of tetrabenazine was administered at a dose of 1 mg/kg subcutaneously before one hour prior to the test and then the solution of the compounds of this invention were administered at the doses of 1, 2, 2.5 and 5 mg/kg subcutaneously with the simultaneous administration of tetrabenazine. The nmbers of CARs, EFs and IRs were automatically counted and evaluated by multi-way analysis of variance (ANOVA).

[7] = test system: dopamine release, striatum; assay: Release of biogenic amines from brain tissue: dopamine, striatum; type: in vivo, Wistar rats
Description: as §1

[8] = test system: dopamine release, tuberculum olfactorium; assay: Release of biogenic amines from brain tissue: dopamine, tuberculum olfactorium; type: in vivo, Wistar rats
Description: as §1

[9] = molecular target: α1 receptor; assay: Affinity to α1 receptor; set-up: species or system rat; settings: read-out: Affinity to α1 receptor (MIC50; mole concentration for 50% inhibition of binding); 0.25 nM ^3H-prazocin; 90 min
Description: The solution of receptor was prepared as follows. As soon as rats were decapitated, brain was removed and its weight was measured. Its brain was homogenized in ten times volumes of ice-cold 0.35 M sucrose (pH 7.4) by glass homogenizer with teflon pestle which was revolted by motors. Thereafter, the homogenate was centrifuged at 4° C. at 900×g for 10 min and the supernatant was, furthermore, recentrifuged at 4° C. at 22,000×g for 20 min. The precipitate was suspended by addition of 5 mM phosphate buffer solution (pH 7.4). After the suspension was incubated at 37° C. for 30 min, the suspension was recentrifuged at 4° C. at 22,000×g for 20 min. The precipitate was resuspended by addition of 10 ml of 5 mM phosphate buffer solution (pH 8.0). The precipitate was used as the solution of receptor.
^3 H-prazocin was used as a ligand. 0.25 nM ^3 H-prazocin in 5 mM phosphate buffer (pH 8.0), the compound of this invention and the solution of receptor were added in tube and the mixture were incubated at 25° C. for 90 min. In addition, the […] binding was shown by binding value of ^3 H-prazocin under the coexistence with 0.1 μM prazocin. The binding reaction was carried out as follows. After ^3 H-prazocin (binding type: B) bound to receptor using glassfiberfilter (pore size: 0.5 μm, Whatman GF/C.) and free type of prazocin (free type: F) were separated with B/F separator (Brandel, USA), only the binding type of ^3 H-prazocin was collected. The binding type of ^3 H-prazocin absorbed to glass-fiber filter was washed with ice-cold saline solution and was remove to vial. After 10 ml of scintillation cocktail was added in it, the radioactivity was determined. From the binding inhibition rate of α1 receptor and ligand, affinity of the compounds of this invention to α1 receptor was measured.
If affinity of certain compound to a receptor is high, the binding ligand and receptor is inhibited.

[10] = molecular target: T1, D1 receptor (Rattus norvegicus, UniProt P18901); assay: Affinity to D1 receptor; type: binding
T1 construct: The precipitate was used as the solution of receptor; from tissue; host or cells: rat brain (whole) crude membranes

[11] = molecular target: 5-HT1 receptor; assay: Affinity to 5-HT1 receptor; set-up: species or system rat; settings: read-out: Affinity to 5-HT1 receptor (MIC50; mole concentration for 50% inhibition of binding); 2 nM ^3H-5-HT
[12] = molecular target: T2, 5-HT2 receptor (Rattus norvegicus, UniProt P14842); assay: Affinity to 5-HT2 receptor; type: binding
T2 construct: The precipitate was used as the solution of receptor; from tissue; host or cells: rat brain (whole) crude membranes

[13] = molecular target: α2 receptor; assay: Affinity to α2 receptor; set-up: species or system rat; settings: read-out: Affinity to α2 receptor (MIC50; mole concentration for 50% inhibition of binding); 0.7 nM ^3H-rauwolscine
[14] = molecular target: D2 receptor; assay: Affinity to D2 receptor; set-up: species or system rat; settings: read-out: Affinity to D2 receptor (MIC50; mole concentration for 50% inhibition of binding); 2.0 nM spiperone

T2 sequence (P14842 whole entry): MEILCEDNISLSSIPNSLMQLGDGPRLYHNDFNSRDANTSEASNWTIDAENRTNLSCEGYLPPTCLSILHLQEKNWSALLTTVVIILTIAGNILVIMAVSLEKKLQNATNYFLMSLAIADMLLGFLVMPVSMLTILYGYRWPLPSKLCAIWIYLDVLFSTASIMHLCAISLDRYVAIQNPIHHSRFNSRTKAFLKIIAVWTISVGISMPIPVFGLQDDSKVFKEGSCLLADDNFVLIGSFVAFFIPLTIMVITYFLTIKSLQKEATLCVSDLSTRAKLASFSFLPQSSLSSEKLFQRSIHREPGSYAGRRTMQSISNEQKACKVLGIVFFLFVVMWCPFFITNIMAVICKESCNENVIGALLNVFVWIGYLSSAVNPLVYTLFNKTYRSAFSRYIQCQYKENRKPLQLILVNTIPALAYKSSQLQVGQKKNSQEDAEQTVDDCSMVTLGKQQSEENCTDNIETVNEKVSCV
T1 sequence (P18901 whole entry): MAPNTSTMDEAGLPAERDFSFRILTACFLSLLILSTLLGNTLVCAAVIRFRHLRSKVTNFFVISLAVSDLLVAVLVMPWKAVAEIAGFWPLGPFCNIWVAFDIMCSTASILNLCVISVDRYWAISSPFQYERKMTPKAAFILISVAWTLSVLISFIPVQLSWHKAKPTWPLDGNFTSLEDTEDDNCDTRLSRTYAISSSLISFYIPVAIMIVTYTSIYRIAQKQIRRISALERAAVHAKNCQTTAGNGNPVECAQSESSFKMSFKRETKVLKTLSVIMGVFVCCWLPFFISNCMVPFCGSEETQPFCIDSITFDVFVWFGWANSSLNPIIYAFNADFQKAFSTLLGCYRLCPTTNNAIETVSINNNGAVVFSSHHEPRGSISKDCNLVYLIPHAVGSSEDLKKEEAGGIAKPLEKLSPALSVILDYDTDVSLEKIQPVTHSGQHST

Row | SMILES | activity at 24 h, 10 µM [3] [%] | activity at 24 h, 100 µM [3] [%] | Condition Avoidance Reflex (CARs) ([6]; 5 mg/kg s.c.) | Intersignal Reactions (IRs) ([6]; 5 mg/kg s.c.) | IC50 [9] [µM] | IC50 [10] [µM] | IC50 [11] [µM] | IC50 [12] [µM] | IC50 [13] [µM] | IC50 [14] [µM] | Release of dopamine, substantia nigra ([1]; 0.01 mg/kg s.c.) | Release of noradrenaline, locus coeruleus ([2]; 0.01 mg/kg s.c.) | Release of serotonin, raphe ([5]; 0.01 mg/kg s.c.) | Condition Avoidance Reflex (CARs) ([6]; 1 mg/kg s.c.) | Release of dopamine, striatum ([7]; 0.01 mg/kg s.c.) | Release of dopamine, tuberculum olfactorium ([8]; 0.01 mg/kg s.c.) | other results
1 | CCCNC(CCC)Cc1ccccc1 (racemic) [PPAP, 1-phenyl-2-propylaminopentane, reference compound] | 127 ± 5.45 | 152 ± 11.1 | **** .Arrow-up bold. | **** .Arrow-up bold. |  |  |  |  |  |  |  |  |  |  |  |  | Release of dopamine, substantia nigra ([1]; 0.25 mg/kg s.c.): 4.0 ± 0.24 nmol/g tissue, for 20 min; Release of dopamine, substantia nigra ([1]; 1.00 mg/kg s.c.): 4.0 ± 0.21 nmol/g tissue, for 20 min; Release of noradrenaline, locus coeruleus ([2]; 0.25 mg/kg s.c.): 3.8 ± 0.30 nmol/g tissue, for 20 min; Release of noradrenaline, locus coeruleus ([2]; 1.00 mg/kg s.c.): 4.6 ± 0.15 nmol/g tissue, for 20 min; LDH release, significance in words [4]: released LDH significantly; Release of serotonin, raphe ([5]; 0.25 mg/kg s.c.): 0.416 ± 0.03 nmol/g tissue, for 20 min; Release of serotonin, raphe ([5]; 1.00 mg/kg s.c.): 0.741 ± 0.01 nmol/g tissue, for 20 min; Release of dopamine, striatum ([7]; 0.25 mg/kg s.c.): 3.5 ± 0.19 nmol/g tissue, for 20 min; Release of dopamine, striatum ([7]; 1.00 mg/kg s.c.): 3.6 ± 0.19 nmol/g tissue, for 20 min; Release of dopamine, tuberculum olfactorium ([8]; 0.25 mg/kg s.c.): 3.7 ± 0.10 nmol/g tissue, for 20 min; Release of dopamine, tuberculum olfactorium ([8]; 1.00 mg/kg s.c.): 3.2 ± 0.21 nmol/g tissue, for 20 min
2 | CC(C)C[C@H]1C(=O)N2CCC[C@H]2[C@]2(O)O[C@](NC(=O)[C@@H]3C=C4c5cccc6[nH]c(Br)c(c56)C[C@H]4N(C)C3)(C(C)C)C(=O)N12 [Bromocriptine, reference compound] |  |  |  |  | 0.01 | 10 | 0.1 | 1 | 0.1 | 0.01 |  |  |  |  |  |  | 
3 | CCCNC(CCC)Cc1cccc2[nH]ccc12.Cl (stereo not shown) [Compound No. 21, 1-(Indol-4-yl)-2-propylaminopentane Hydrochloride] | 110 ± 4.42 | 130 ± 9.68 |  |  | > 10 | > 10 | > 10 | > 10 | 0.7 | > 10 | 10.0 ± 0.30 nmol/g tissue, for 20 min | 4.6 ± 0.40 nmol/g tissue, for 20 min | 0.354 ± 0.00 nmol/g tissue, for 20 min | **** .Arrow-up bold. | 5.4 ± 0.17 nmol/g tissue, for 20 min | 7.4 ± 0.15 nmol/g tissue, for 20 min | Condition Avoidance Reflex (CARs) ([6]; 0.5 mg/kg s.c.): ** .Arrow-up bold.
4 | CCCNC(CCC)Cc1cc2ccccc2o1.Cl (stereo not shown) [Compound No. 25, 1-(Benzofuran-2-yl)-2-propylaminopentane Hydrochloride] | 90.3 ± 2.85 | 112 ± 37 | **** .Arrow-up bold. | * .Arrow-up bold. | > 10 | > 10 | > 10 | 20 | 1 | > 10 | 6.6 ± 0.04 nmol/g tissue, for 20 min | 4.3 ± 0.20 nmol/g tissue, for 20 min | 0.457 ± 0.04 nmol/g tissue, for 20 min | **** .Arrow-up bold. | 5.3 ± 0.14 nmol/g tissue, for 20 min | 6.5 ± 0.20 nmol/g tissue, for 20 min | Escape Failures (EFs) ([6]; 1 mg/kg s.c.): * .dwnarw.
5 | C#CCN(C)[C@H](C)Cc1ccccc1 [Selegiline, reference compound] |  |  |  |  | > 10 |  | > 10 | > 10 | 2 | > 10 |  |  |  |  |  |  | 
